Melting point data for 89 compounds are collected here from a melting point compilation (Tetko et al.; mined from patent text by program, amines drawn as free bases though some values may be those of a salt).

By melting point is commonly meant the temperature, or range, at which the solid turns liquid. The compound `NS(=O)(=O)c1ccc(-n2sc3cc(F)ccc3c2=O)cc1` had a melting point of 265 to 266 °C.
In turn, `O=C(O)c1cccc(-n2c(-c3ccccc3)cc3c2CCCC3)c1` had a melting point of 191 to 193 °C.
As for `CC1(C)C=C(c2ccccc2)c2ccccc2N1`, the melting point was 79.5 to 81 °C.
With `CC1CN(S(=O)(=O)c2cccc(C(=O)O)c2)C(C)CN1S(=O)(=O)c1cccc(C(=O)O)c1` (centres undefined) the figure was 223 to 227 °C.
With `CS(=O)(=O)c1ccc(-c2nn3c(-c4ccc(F)cc4)coc3c2-c2ccc(F)cc2)cc1` the figure was 200 to 202 °C; with `CC1OC(O)CC(NC(=O)C(F)(F)F)C1C` (centres undefined), 132 to 134 °C.
The same measure for `COc1ccc(N2CCN(c3c(C)c(C)c4c(c3C)C(N3CCCCC3)C(C)(C)O4)CC2)cc1OC` (centres undefined): 134 to 135 °C; for `N#CC1CN1C(=O)NC(=O)c1ccc2c(c1)CCCC2` (centres undefined): 166 to 168 °C; for `O=C1N(Cc2ccc(C(F)(F)F)o2)c2ccccc2C12COc1cc(NC3CCNC3)ccc12` (centres undefined): 122 to 125 °C.
For the compound `NC(=O)N(O)Cc1sccc1Sc1ccc(Br)cc1`, the melting point is 124 to 126 °C.
In the case of `COc1ccc(CC2(C)CN(C(c3ccccc3)c3ccccc3)CCN2C)cc1OC` (centres undefined), the melting point amounted to 102 °C.
For `O=C1CC(Cc2ccc(F)cc2)CN1` (centres undefined), the melting point lay in the range of 88.5 to 90 °C.
Take `CCNC(=O)N(C)c1ccc(C(O)(C(F)(F)Cl)C(F)(F)Cl)cc1`: the melting point is 155 to 157 °C.
Turning to `CN1CCN(c2cc(Cl)cc3c2c(=O)n(Cc2ccccc2[N+](=O)[O-])c(=O)n3Cc2ccccc2)CC1`, the melting point lay in the range of 164 to 169 °C.
The same measure for `CCCS(=O)c1ncc(C(F)(F)F)cc1Cl` (centres undefined): 51 to 53 °C; for `O=S(=O)(Nc1ccc(F)cc1C(=NOc1ccc(Cl)cc1)c1ccccc1)C(F)(F)F`: 90 to 93 °C; for `O=C(Nc1ccc(CCc2nnn[nH]2)cc1)C(F)(F)C(F)(F)C(F)(F)F`: 161 to 162 °C.
`COc1ccc2ncc([N+](=O)[O-])c(Cl)c2c1` displayed a melting point of 281 to 283 °C.
The same measure for `CC(C)N(CCC1(c2ccccc2)C(=O)NC(C)N2CCCCC21)C(C)C` (centres undefined): 142 to 145 °C; for `N#Cc1nc(-c2ccccc2)c(-c2ccccc2)nc1Cl`: 201 to 204 °C.
Consider `Cn1nc(-c2ccccc2)c(Oc2ccc([N+](=O)[O-])cc2)c1-c1ccccc1`, for which the melting point lay within 85 to 110 °C.
The same measure for `O=C(NCC(F)(F)F)C1(CCCc2ccccc2)c2ccccc2-c2ccccc21`: 86 to 88 °C; for `COC(=O)C1=C(C)NC(C)=C(C(=O)OC)C1c1cc([N+](=O)[O-])ccc1OCCCCNCC(O)COc1ccc(OC)cc1` (centres undefined): 154 to 155 °C; for `O=C1Nc2ccccc2N(C(=O)N2CCOC(CCN3CCCCC3)C2)c2ncccc21` (centres undefined): 136 to 138 °C.
Turning to `c1ccc2c(c1)NCCc1nccn1-2`, the melting point was in the range of 119 to 122 °C.
`O=C(OCc1ccccc1)N1CCC(c2[nH]c(=O)c3ccccc3c2-c2ccccc2)CC1` had a melting point of 276 to 278 °C.
The same measure for `O=C1N(CC2CCCO2)c2ccccc2C12COc1cc3c(cc12)OCCO3` (centres undefined): 174 to 176 °C; for `COc1cc(OCCCN2CCOCC2)c(C=CC(=O)c2ccc(S(N)(=O)=O)cc2)cc1-c1cccs1`: 193 to 196 °C; for `O=C(O)c1cnn2c(C3CC3)cc(-c3ccc(Cl)cc3)nc12`: 242 to 243 °C.
The same measure for `C[C@@H]1c2ccccc2-c2ccc(F)cc2N1C(=O)c1ccc(O)cc1O`: 182 to 184 °C; for `CCCC1Cc2c3c(c(C)c(C)c2C1O)OC(C(=O)O)C3` (centres undefined): 161 °C.
With `CCOc1c(OC)cc(C(=O)OC)c(-c2c(C(=O)OC)cc(OC)c3c2OCO3)c1OCC` the figure was 107 to 108 °C; with `COc1cccc(Oc2cccnc2C#N)c1`, 112 to 114 °C.
`CCOC(=O)c1cc(=O)n(CCC(C(=O)NO)N(C)S(=O)(=O)c2ccc(Oc3ccccc3)cc2)c(=O)[nH]1` (centres undefined) had a melting point of 159 to 160 °C.
As for `O=C1Nc2ccc(C#CCCN3CCC(Cc4ccccc4)CC3)cc2C1=O`, the melting point was in the range of 140 to 141 °C.
The same measure for `CSc1ccc(-c2nn(CC=Cc3ccc(Cl)cc3)c(=O)cc2-c2ccc(F)cc2)cc1`: 119 °C.
Compound `COC(=O)/C=C/c1cc([N+](=O)[O-])cn1C` yielded a melting point of 146 to 147 °C.
`CC(C)c1cccc(Nc2nc(Cl)nc(NCc3ccccn3)n2)c1` displayed a melting point of 130 to 132 °C.
With `O=C1NCCN1c1cccc([N+](=O)[O-])c1` the figure was 158 to 160 °C.
With `Cn1ncnc1COc1nn2c(-c3ccccc3F)nncc2c1-c1cccc(N)c1` the figure was 196 to 200 °C.
With `CC1(C)C(C(=O)O)N2C(=O)C(NC(=O)COc3ccccc3)C2S1=O` (centres undefined) the figure was 160 to 161 °C; with `COc1ccc(-c2cc(Cl)cc3c2NC(CN)CO3)c(Cl)c1` (centres undefined), 105 °C.
Compound `COc1ccc(Cl)c(Oc2c(NS(=O)(=O)c3ccc4c(c3)OCO4)ncnc2OCCO)c1` had a melting point of 148 to 150 °C.
`CCOc1cc2c(Cl)cc(C)nc2nc1C` had a melting point of 144 to 147 °C.
With `Cc1oc(C(C)(C)C)nc1CCOc1ccc(CC(OC(C)C)C(=O)O)c2sccc12` (centres undefined) the figure was 159 to 160 °C.
The same measure for `CC(C)c1cccc(F)c1NC(=S)NN`: 122 to 124 °C; for `COC(=O)c1cc([N+](=O)[O-])c(F)cc1F`: 78 to 80 °C.
The same measure for `C#CCNC(=C[N+](=O)[O-])NCCSCc1nccs1`: 121 to 123 °C; for `COc1ccc(CCCC(=O)CCC(=O)O)cc1`: 88 to 89 °C; for `CCCCCS(=O)(=O)NC(=O)c1ccc2[nH]c(C)c(Cc3ccc(SC(C)(C)C)cc3Cl)c2c1`: 185 to 188 °C.
In turn, `CCOC(=O)CCc1c(C)nc(CC)n(Cc2ccc(-c3ccccc3-c3nnn[nH]3)cc2)c1=O` registered a melting point of 76 to 80 °C.
`C=CC(=O)NC(=O)CC(C)=O` had a melting point of 128 to 130 °C.
Compound `Cc1nc2nccc(-c3cccs3)n2n1` registered a melting point of 184 to 185 °C.
With `Brc1ccccc1Cn1c(-c2ccc3c(c2)OCO3)nc2ccccc21` the figure was 122 to 124 °C; with `C=CCOc1ccc(-c2ccc(C(=O)OCC)cc2)cc1`, 89 to 92 °C.
With `Cc1sc(N)c(C(=O)c2ccccn2)c1C` the figure was 136 to 139 °C; with `CC(=O)NC12CC1CN(c1nc3c(cc1F)c(=O)c(C(=O)O)cn3C1CC1)C2` (centres undefined), 275 °C.
Take `CN1C(=O)CC[C@]2(C)c3ccc(-c4ccc(C(F)(F)F)cc4F)cc3CC[C@@H]12`: the melting point lay within 72 to 79 °C.
The same measure for `O=C1Nc2ccc(I)cc2C1=NNC(=O)c1ccc(O[C@@H](Cc2ccccc2)C(=O)OCc2ccccc2)cc1`: 194 °C.
With `COc1cccc(-c2nc3n(n2)CCc2ccccc2-3)c1` the figure was 94 to 96 °C; with `CC(C)(C)c1cc(OC(=O)c2ccccc2)ccc1O`, 120 to 121 °C; with `CC(Cc1cc(C(C)(C)C)c(O)c(C(C)(C)C)c1)C(=O)Oc1ccc(C(=O)c2cc(C(C)(C)C)c(O)c(C(C)(C)C)c2)c(O)c1` (centres undefined), 163 to 165 °C.
As for `Cc1cccc(NS(=O)(=O)c2ccc([N+](=O)[O-])cc2)c1`, the melting point lay within 121 to 124 °C.
With `CCCCS(=O)(=O)NC(=O)c1ccc(C(=O)NCCO)nc1` the figure was 168 to 169 °C; with `COC(=O)c1ccccc1NC(=O)CC(C)=O`, 79 to 80 °C.
As to `C=CCOc1ccc(C#N)c(O)c1`, the melting point was 134 to 136 °C.
`CCOCCc1nnc(S)n1N` yielded a melting point of 123 to 124 °C.
The same measure for `COc1c(C)cc(C(=O)N2CCN(c3ncccc3NC(C)C)CC2)cc1C`: 89 to 93 °C.
With `N#Cc1c(C(F)(F)F)ccc(Cl)c1Cl` the figure was 53 to 54 °C.
The same measure for `C=CCN(c1ccc(OC)cc1)S(=O)(=O)c1c(F)c(F)c(F)c(F)c1F`: 59 to 60 °C.
In turn, `CN1CC(CO)C=C2c3cccc4c3c(cn4C(C)(C)C)CC21` (centres undefined) gave a melting point of 181 to 183 °C.
With `CCc1nc(Cl)c2c(-c3ccc([N+](=O)[O-])o3)nn(C)c2n1` the figure was 165 °C; with `CCCc1c(OCCCCCC(=O)c2ccc3cc(OC)c(OC)cc3c2)ccc(C(=O)OC)c1O`, 111 to 112 °C.
Turning to `NC(CSSCCCN1C(=O)NCC1c1ccccc1)C(=O)O` (centres undefined), the melting point was 172 to 178 °C.
`COC(=O)C=CC(=O)NC(N)=O` yielded a melting point of 112 to 114 °C.
The compound `COc1ccc(C(=CC=O)c2ccc(OC)c(OC)c2)cc1OC` yielded a melting point of 129 to 130 °C.
For the compound `CC1CC(=O)NN=C1c1ccc(NCCCN)c([N+](=O)[O-])c1` (centres undefined), the melting point lay within 154 to 156 °C.
With `COC(=O)c1ccc(/C=C/c2nc(-c3ccccc3)c(C)s2)cc1`, the melting point lay in the range of 156 to 157 °C.
`CC1CN(c2ccc(N3CC(CNC(=O)CC#N)OC3=O)cc2F)CCC1=CC#N` (centres undefined) had a melting point of 102 to 104 °C.
On to `COC(=O)c1ccc2c(ccn2C)c1`, for which the melting point is 108 to 110 °C.
`O[C@H]1CC[C@H](Nc2nccc(-c3c[nH]c4ccccc34)n2)CC1` yielded a melting point of 258 to 260 °C.
`O=C(CO)c1ccc(-c2ccccc2)cc1` showed a melting point of 130 to 132 °C.
Regarding `COC(=O)C(C)(C)c1ccc(C(=O)Nc2cn3cc(I)ccc3n2)cc1`, the melting point lay in the range of 234 to 235 °C.
With `CCCCCCCCCCCCCCCCCCCCCCC(NC(C)=O)(C(=O)OCC)C(=O)OCC` the figure was 79 to 80 °C.
For `O=c1ccc2c([nH]1)CCN(Cc1ccccc1)C2`, the melting point was in the range of 210 to 212 °C.
With `CN1C(=O)C2(COc3cc4c(cc32)OCCO4)c2c(NC(=O)NC3CCCC3)cccc21` (centres undefined), the melting point fell in the range of 133 to 135 °C.
The same measure for `CC1(C)C(c2ccc(S(C)(=O)=O)cc2)=C(c2ccccc2)C1O` (centres undefined): 79 to 81 °C; for `O=C(O)COc1cc(F)ccc1C(=S)NCc1ccc(Br)cc1F`: 154 to 157 °C.
With `O=C(Nc1ccc(C#CC2(O)CN3CCC2CC3)cc1)C(F)(F)F` (centres undefined) the figure was 222 to 223 °C.
